Measurements from EP0456792B1, “IMPROVED SYSTEM FOR THE TRANSDERMAL APPLICATION OF PHARMACOLOGICALLY ACTIVE COMPOUNDS AT CONTROLLED pH” (Boehringer Ingelheim International GmbH, priority 1989, dated 1991).
“And” between values parts separate entries of the source, which are not always exact repeats. Equal values may be shown once.

Legend:
[1] = Permeability of pH-modified Clenbuterol CPA through human skin, Franz cell; format: in vitro ADME, Mensch; details: Zelle 1-3 are replicates
Method: Permeabilität von pH-Wort modifiziertem Clenbuterol CPA durch Humanhaut:
Zusammensetzung der CPA's:
Als Freigabeapparatur wurde eine Franz-Zelle verwendet. Dies ist eine übliche Methode, um die Abgabe von Arzneistoffen aus pharmazeutischen Formulierungen zu testen. Proben wurden nach 24 h bzw. 48h entnommen und der Gehalt an Clenbuterol bestimmt.

[2] = Flux rate of Clenbuterol through the skin as a function of the skin surface pH (Fig. 9); format: in vitro ADME, Mensch
Excerpt: Überraschenderweise wurde nun festgestellt, daß bei einer transdermalen Applikation von Clenbuterol die Fluxrate für den Wirkstoff entscheidend verbessert werden kann, wenn der pH-Wert der Hautoberfläche auf einen Wert konstant zwischen 6,0 und 8,5 gehalten wird.
Die Fluxrate eines Wirkstoffes durch die Haut ist definiert als Menge des Wirkstoffes pro Hautoberfläche und pro Zeiteinheit und wird üblicherweise in [µg/cm^2 . h] angegeben. In dem oben angegebenen pH-Bereich erreicht die Fluxrate für Clenbuterol ihr Maximum, während bei höheren und niederen pH-Werten die Fluxrate stark abnimmt.
Der pH-Wert der Hautoberfläche ist beim Menschen individuell und temporär verschieden. Ein als Standard angenommener pH-Wert von […] bis 6,0 schwankt im Individualfall zwischen pH 4,5 und 8,0 und hängt von vielen unterschiedlichen Faktoren ab. Schwankungen des pH-Wertes können daneben zum einen durch das Pflaster selbst und zum anderen durch den Wirkstoff hervorgerufen werden. Wie aus der Abb. I ersichtlich ist, nimmt die Fluxrate von Clenbuterol außerhalb des angegebenen pH-Bereichs drastisch ab, so daß eine ausreichende Permeabilität der Haut für Clenbuterol nicht mehr gewährleistet ist.
In Fig. 9 ist die Permeabilität P von Clenbuterol durch die menschliche Haut aufgetragen (Funktion A); P ist angegeben in [cm/sec]. […]

[3] = CPA pH-Wert 3.5 (5 % Clenbuterol, 5 % Zitronensäure, 90 % Eudragit E 30 D)
[4] = CPA pH-Wert 10.0 (5 % Clenbuterol, 5 % Na2CO3, 90 % Eudragit E 30 D)

Q: What does the source list for `CC(C)(C)NCC(O)c1cc(Cl)c(N)c(Cl)c1` (stereo not drawn) [Clenbuterol]?
A: Clenbuterol Diffusion nach 24 h [1, 3]: 3.48 µg/cm^2 and 0.65 µg/cm^2 and 2.64 µg/cm^2; Clenbuterol Diffusion nach 48 h [1, 3]: 5.52 µg/cm^2 and 1.69 µg/cm^2 and 6.04 µg/cm^2; Clenbuterol Diffusion nach 24 h [1, 4]: 7.8 µg/cm^2 and 11.44 µg/cm^2 and 9.84 µg/cm^2; Clenbuterol Diffusion nach 48 h [1, 4]: 21.7 µg/cm^2 and 27.3 µg/cm^2 and 24.2 µg/cm^2; Fluxrate ([2]; at pH values higher and lower than the range 6,0 to 8,5): stark abnimmt; Fluxrate ([2]; skin surface pH between 6,0 and 8,5): Maximum
